From US4643991A (The University of Kentucky Research Foundation, priority 1984, dated 1987)
Read-outs that look alike come from different tables or passages of the source.

Tests used:
[1] = molecular target: porcine pancreatic elastase (Sus scrofa, UniProt P00772); experiment: Inhibition of porcine pancreatic (PP) elastase in vitro, substrate BOC-Ala-ONp, Lineweaver-Burk and Dixon plots; format: biochemical; settings: for PPE (inhibitory activity towards PP elastase): Table 4
Procedure: As pointed out above, the compounds of the invention are useful as elastase inhibitors. To evaluate the compounds, the inhibitory activity of the compounds were tested in vitro against the serine dependent proteolytic enzymes, trypsin, chymotrypsin and porcine pancreatic elastase. All three enzymes belong to the family of serine proteases where the catalytic residues are composed of a triad of amino acid residues, serine, histidine and aspartic acid that actually perform the peptide bond hydrolysis. In addition to the catalytic residues, the active site is composed of an extended substrate binding site that consists of a primary substrate binding site S1, and various subsites on either side of the scissile bond.
The rate and extent of inhibition could be effected by varying the structure of R and R'. As shown from kinetic parameters when R is p-nitrophenol, and R' was varied, all the peptidyl carbamates inhibited PP elastase except when R' was a tert-butyl group. […] In all cases the inhibition was specific and competitive. […] Moreover, the nature of the protecting group (P5) seemed to affect the affinity of the inhibitor for the enzyme. In all these cases the inhibition was studied at different substrate and inhibitor concentrations and the mode of inhibition determined from Lineweaver-Burk and Dixon plots. Ki values were calculated from the latter. […] The enzymatic activity of PP elastase after treatment with the inhibitor(s) was also tested using the natural substrate elastin-congored.

[2] = molecular target: T1, HL elastase (Homo sapiens, UniProt P08246); experiment: Inhibition of human leukocyte (HL) elastase; format: biochemical; settings: Table 4; [E] = 0.61 μM
T1 sequence (P08246 30-267): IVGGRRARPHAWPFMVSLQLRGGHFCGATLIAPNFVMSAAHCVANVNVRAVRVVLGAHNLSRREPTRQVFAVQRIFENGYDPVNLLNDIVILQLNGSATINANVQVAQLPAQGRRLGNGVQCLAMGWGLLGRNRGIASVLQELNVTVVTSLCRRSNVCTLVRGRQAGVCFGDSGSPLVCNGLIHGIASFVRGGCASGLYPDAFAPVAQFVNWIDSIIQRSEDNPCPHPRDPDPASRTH

[3] = Table 1, changes in P1', PP elastase, read-out: Ki
[4] = Table 1, changes in P1', [E] = 0.61 μM
[5] = Table 2, changes in P1, [E] = 0.61 μM
[6] = Table 3, variations in P5 and P3

Chain of porcine pancreatic elastase (P00772 27-266): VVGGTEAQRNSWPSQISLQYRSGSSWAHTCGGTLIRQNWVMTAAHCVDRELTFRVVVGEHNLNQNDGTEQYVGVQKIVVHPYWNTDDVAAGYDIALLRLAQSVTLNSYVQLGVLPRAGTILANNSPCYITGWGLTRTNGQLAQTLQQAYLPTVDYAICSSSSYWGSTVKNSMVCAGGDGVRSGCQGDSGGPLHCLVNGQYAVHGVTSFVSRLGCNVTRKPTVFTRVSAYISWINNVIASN

## C[C@H](NC(=O)OC(C)(C)C)C(=O)Oc1ccc([N+](=O)[O-])cc1 [BOC-Ala-ONp, reference compound]
[1]; substrate of PP elastase assay
  Km: 4.8 mM

## CC(C)N(CC(=O)[C@@H]1CCCN1C(=O)OC(C)(C)C)C(=O)Oc1ccc([N+](=O)[O-])cc1 [Compound 6, p-Nitrophenyl N-(N'-t-Boc-L-prolyl)Methyl-N-Isopropylcarbamate]
[1]; detected by the release of p-nitrophenol
  Hydrolysis by PP elastase: hydrolysis of 6 by PP elastase

## COC(=O)CCC(=O)N[C@@H](C)C(=O)N[C@@H](C)C(=O)N1CCC[C@H]1C(=O)CN(C(=O)Oc1ccc([N+](=O)[O-])cc1)C(C)C [Compound 10, p-Nitrophenyl N-(Methy Succinyl-L-Alanyl-L-Alanyl-L-Prolymethyl)-N-Isopropyl Carbamate]
[1]; [3]
  Ki: 42.5 µM
[1]; [4]
  Comments (inhibition of PP elastase): +
[1]; [5]
  Comments (inhibition of PP elastase): +

## COC(=O)CCC(=O)N[C@@H](C)C(=O)N[C@@H](C)C(=O)N1CCC[C@H]1C(=O)CN(C(=O)Oc1ccccc1)C(C)C [Compound 11, Phenyl N-(Methyl Succinyl-L-Alanyl-L-Alanyl-L-Prolyl Methyl)-N-Isopropyl Carbamate]
[1]; [3]
  Ki: 32.5 µM
[1]; [4]
  Comments (inhibition of PP elastase): +

## COC(=O)CCC(=O)N[C@@H](C)C(=O)N[C@@H](C)C(=O)N1CCC[C@H]1C(=O)CN(C(=O)Sc1nnnn1C)C(C)C [Compound 18]
[1]; [3]
  Ki: 14.8 µM
[1]; [4]
  Comments (inhibition of PP elastase): +

## CCCN(CC(=O)[C@@H]1CCCN1C(=O)[C@H](C)NC(=O)[C@H](C)NC(=O)CCC(=O)OC)C(=O)Oc1ccc([N+](=O)[O-])cc1 [Compound 29, P-Nitrophenyl N-(methyl succinyl-L-alanyl-L-alanyl-L-prolylmethyl) N-propylcarbamate]
[1]; Table 2, changes in P1, PP elastase, read-out: Ki
  Ki: 30.5 µM
[1]; [5]
  Comments (inhibition of PP elastase): +

## COC(=O)CCC(=O)N[C@@H](C)C(=O)N[C@@H](C)C(=O)N1CCC[C@H]1C(=O)CN(C(=O)Oc1ccc([N+](=O)[O-])cc1)C1CC1 [Compound 32, P-Nitrophenyl N-(methyl succinyl-L-alanyl-L-analyl-L-prolylmethyl)-N-cyclopropylcarbamate]
[1]; [5]
  Comments (inhibition of PP elastase): +

## COC(=O)CCC(=O)N[C@@H](C)C(=O)N[C@@H](C)C(=O)N1CCC[C@H]1C(=O)CN(CC(C)C)C(=O)Oc1ccc([N+](=O)[O-])cc1 [Compound 47, p-Nitrophenyl N-(methylsuccinyl-L-alanyl-L-alanyl-L-prolylmethyl)-N-(2-methyl)propylcarbamate]
[1]; [E] = 0.61 μM
  PPE (inhibitory activity towards PP elastase): - (No inhibition at [I] < 150 μM using [E] = 0.61 μM.)

## COC(=O)CCC(=O)N[C@@H](C)C(=O)N[C@@H](C)C(=O)N1CCC[C@H]1C(=O)CN(Cc1ccccc1)C(=O)Oc1ccc([N+](=O)[O-])cc1 [Compound 51, P-Nitrophenyl N-(methyl succinyl-L-alanyl-L-alanyl-L-prolylmethyl)-N-phenylmethylcarbamate]
[1]; [E] = 0.61 μM
  PPE (inhibitory activity towards PP elastase): - (No inhibition at [I] < 150 μM using [E] = 0.61 μM.)
[2]
  HLE (inhibitory activity towards HL elastase): - (No inhibition at [I] < 150 μM using [E] = 0.61 μM.)

## COC(=O)CCC(=O)N[C@@H](C)C(=O)N[C@@H](C)C(=O)N1CCC[C@H]1C(=O)CN(C(=O)Oc1ccc([N+](=O)[O-])cc1)C1CCCCC1 [Compound 55, P-Nitrophenyl N-(methyl succinyl-L-alanyl-L-alanyl-L-prolylmethyl)-N-cyclohexylcarbamate]
[1]; [E] = 0.61 μM
  PPE (inhibitory activity towards PP elastase): - (No inhibition at [I] < 150 μM using [E] = 0.61 μM.)
[2]
  HLE (inhibitory activity towards HL elastase): - (No inhibition at [I] < 150 μM using [E] = 0.61 μM.)

## COC(=O)CCC(=O)N[C@@H](C)C(=O)N[C@@H](C)C(=O)N1CCC[C@H]1C(=O)CN(C(=O)Oc1c(F)c(F)c(F)c(F)c1F)C(C)C [Compound 58, Pentafluorophenyl N-(methyl succinyl-L-analyl-L-alanyl-L-prolymethyl)-N-isopropyl-carbamate]
[1]; [3]
  Ki: 37.5 µM
[1]; [4]
  Comments (inhibition of PP elastase): +
[1]; [6]
  Comments (inhibition of PP elastase): +

## COC(=O)CCC(=O)N[C@@H](C)C(=O)N[C@@H](C)C(=O)N1CCC[C@H]1C(=O)CN(C(=O)OCC(F)(F)C(F)(F)C(F)(F)F)C(C)C [Compound 61, Heptafluorobutyl N-(methyl succinyl-L-alanyl-L-alanyl-L-prolylmethyl)-N-isopropylcarbamate]
[1]; [4]
  Comments (inhibition of PP elastase): +

## COC(=O)CCC(=O)N[C@@H](C)C(=O)N[C@@H](C)C(=O)N1CCC[C@H]1C(=O)CN(C)C(=O)Oc1ccc([N+](=O)[O-])cc1 [Compound 68, p-Nitropheny N-(methyl succinyl-L-alanyl-L-alanyl-L-prolymethyl)-N-methyl-carbamate]
[1]; [5]
  Comments (inhibition of PP elastase): +

## COC(=O)CCC(=O)N[C@@H](C)C(=O)N[C@@H](C)C(=O)N1CCC[C@H]1C(=O)CN(C(=O)Oc1ccc([N+](=O)[O-])cc1)C(C)(C)C [Compound 72]
[1]; [5]
  Comments (inhibition of PP elastase): - (NO INHIBITION OF PP ELASTASE AT [I] < 150 μM USING [E] = 0.61 μM)

## CC(C)N(CC(=O)[C@@H]1CCCN1C(=O)[C@H](C)NC(=O)[C@H](C)NC(=O)C(F)(F)F)C(=O)Oc1c(F)c(F)c(F)c(F)c1F [Compound 93, Pentafluorophenyl N-(trifluoroacetyl-L-alanyl-L-alanyl-L-prolylmethyl)-N-isopropylcarbamate]
[1]
  Ki: 49 µM
[1]; [6]
  Comments (inhibition of PP elastase): +
